Reference: ChEMBL document CHEMBL5465560, “Selectivity Literature for EUbOPEN Chemogenomic Library” (2024)

Assays:
[1] = biological target: T1, Tyrosine-protein kinase ZAP-70 (Homo sapiens) (UniProt P43403); experiment: Selectivity interaction (KinomeScan (DiscoverX)) EUB0000045b ZAP70; details: at 1 µM
T1 sequence (whole entry): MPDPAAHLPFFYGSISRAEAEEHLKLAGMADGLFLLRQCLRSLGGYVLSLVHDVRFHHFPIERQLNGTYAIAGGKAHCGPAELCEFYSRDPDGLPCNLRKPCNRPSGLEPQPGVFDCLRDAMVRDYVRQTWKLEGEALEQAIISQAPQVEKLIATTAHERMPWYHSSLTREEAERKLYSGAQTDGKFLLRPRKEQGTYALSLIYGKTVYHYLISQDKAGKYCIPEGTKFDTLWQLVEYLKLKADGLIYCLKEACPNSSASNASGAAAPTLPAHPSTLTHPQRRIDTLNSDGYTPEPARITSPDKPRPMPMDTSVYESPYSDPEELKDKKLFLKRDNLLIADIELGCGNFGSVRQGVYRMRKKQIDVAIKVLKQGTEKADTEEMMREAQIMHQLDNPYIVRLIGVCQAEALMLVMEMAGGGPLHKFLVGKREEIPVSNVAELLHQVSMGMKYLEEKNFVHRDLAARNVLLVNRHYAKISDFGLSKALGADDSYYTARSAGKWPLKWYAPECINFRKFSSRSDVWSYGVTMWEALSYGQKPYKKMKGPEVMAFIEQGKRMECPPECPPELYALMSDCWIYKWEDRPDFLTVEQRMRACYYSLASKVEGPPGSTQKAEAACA

[2] = biological target: Serine/threonine-protein kinase 32A (Homo sapiens) (UniProt Q8WU08); experiment: Selectivity interaction (KinomeScan (DiscoverX)) EUB0000695a STK32A; details: at 100 nM
Nischarin (Homo sapiens) = Nischarin (Homo sapiens) (UniProt Q9Y2I1); experiment: Selectivity interaction (Eurofins CEREP Diversity Profile (receptors and ion channels)) EUB0000279b NISCH; details: at 10 µM
[3] = biological target: Casein kinase I isoform epsilon (Homo sapiens, UniProt P49674); experiment: Selectivity interaction (KinomeScan (DiscoverX)) EUB0001049a CSNK1E; details: at 1 µM
[4] = biological target: T2, Serine/threonine-protein kinase STK11 (Homo sapiens) (UniProt Q15831); experiment: Selectivity interaction (ActivX KiNativ screen (ex vivo kinase selectivity in human PBMCs)) EUB0001619a STK11; assay type: cell-based; details: PBMC, at 1 µM
T2 sequence (whole entry): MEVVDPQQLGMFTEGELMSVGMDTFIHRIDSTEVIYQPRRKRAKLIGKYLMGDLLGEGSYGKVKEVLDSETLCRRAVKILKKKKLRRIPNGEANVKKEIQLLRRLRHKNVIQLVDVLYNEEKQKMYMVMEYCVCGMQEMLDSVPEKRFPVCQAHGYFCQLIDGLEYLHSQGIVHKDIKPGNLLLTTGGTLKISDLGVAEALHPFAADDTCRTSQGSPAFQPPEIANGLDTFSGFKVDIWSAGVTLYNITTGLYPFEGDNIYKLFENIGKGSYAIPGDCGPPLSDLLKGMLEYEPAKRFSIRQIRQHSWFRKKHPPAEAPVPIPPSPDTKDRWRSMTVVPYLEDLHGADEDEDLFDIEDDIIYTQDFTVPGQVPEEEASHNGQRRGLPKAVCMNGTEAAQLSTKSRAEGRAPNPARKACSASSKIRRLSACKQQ

[5] = biological target: Serine/threonine-protein kinase Nek4 (Homo sapiens) (UniProt P51957); experiment: Selectivity interaction (SelectScreen profiling (Invitrogen)) EUB0000607a NEK4; details: at 2 µM
[6] = biological target: T3, Serine/threonine-protein kinase PLK4 (Homo sapiens) (UniProt O00444); experiment: Selectivity interaction (KinomeScan (DiscoverX)) EUB0000618a PLK4; details: at 10 µM
T3 sequence (whole entry): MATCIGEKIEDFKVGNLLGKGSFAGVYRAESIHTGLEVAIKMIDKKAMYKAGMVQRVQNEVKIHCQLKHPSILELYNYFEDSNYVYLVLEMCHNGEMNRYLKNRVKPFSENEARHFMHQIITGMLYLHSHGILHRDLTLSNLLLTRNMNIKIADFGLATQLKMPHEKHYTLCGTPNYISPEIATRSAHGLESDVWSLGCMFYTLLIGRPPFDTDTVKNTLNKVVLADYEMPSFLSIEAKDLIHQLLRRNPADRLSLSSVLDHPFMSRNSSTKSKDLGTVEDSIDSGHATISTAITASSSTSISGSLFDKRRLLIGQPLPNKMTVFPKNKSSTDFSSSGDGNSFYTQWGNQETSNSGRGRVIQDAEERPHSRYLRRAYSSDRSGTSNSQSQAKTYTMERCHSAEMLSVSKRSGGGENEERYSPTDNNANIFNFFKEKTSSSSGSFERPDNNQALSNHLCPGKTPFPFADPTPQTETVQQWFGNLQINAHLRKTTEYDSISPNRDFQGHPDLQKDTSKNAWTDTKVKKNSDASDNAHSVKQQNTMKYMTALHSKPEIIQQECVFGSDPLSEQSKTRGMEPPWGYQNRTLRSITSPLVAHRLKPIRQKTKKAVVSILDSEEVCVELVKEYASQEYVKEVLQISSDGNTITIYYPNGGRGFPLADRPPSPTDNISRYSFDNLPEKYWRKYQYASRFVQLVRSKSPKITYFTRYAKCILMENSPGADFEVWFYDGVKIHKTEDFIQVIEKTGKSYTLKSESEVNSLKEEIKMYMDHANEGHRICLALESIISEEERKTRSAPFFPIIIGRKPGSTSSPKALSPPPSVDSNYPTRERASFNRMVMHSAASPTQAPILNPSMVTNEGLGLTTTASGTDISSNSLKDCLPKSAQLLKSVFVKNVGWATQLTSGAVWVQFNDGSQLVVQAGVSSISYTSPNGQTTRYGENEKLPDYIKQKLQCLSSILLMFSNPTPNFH

[7] = biological target: Serine/threonine-protein kinase PLK1 (Homo sapiens, UniProt P53350); details: at 10 µM
[8] = biological target: T4, Serine/threonine-protein kinase Sgk2 (Homo sapiens) (UniProt Q9HBY8); experiment: Selectivity interaction (Ambit KINOMEscan and KiNATiv profiling in Jurkat cells) EUB0000090b SGK2; assay type: cell-based; details: at 1 µM
T4 sequence (whole entry): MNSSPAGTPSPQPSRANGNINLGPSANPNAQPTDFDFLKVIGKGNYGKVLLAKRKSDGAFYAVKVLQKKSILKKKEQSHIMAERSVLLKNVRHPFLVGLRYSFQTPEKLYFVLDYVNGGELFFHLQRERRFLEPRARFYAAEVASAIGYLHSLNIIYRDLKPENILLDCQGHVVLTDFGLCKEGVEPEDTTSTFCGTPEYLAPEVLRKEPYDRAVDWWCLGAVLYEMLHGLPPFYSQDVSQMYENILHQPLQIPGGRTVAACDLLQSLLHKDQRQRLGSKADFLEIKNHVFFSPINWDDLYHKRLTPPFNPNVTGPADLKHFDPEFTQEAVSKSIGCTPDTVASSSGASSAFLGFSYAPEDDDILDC

[9] = biological target: Serine/threonine-protein kinase MRCK beta (Homo sapiens) (UniProt Q9Y5S2); experiment: Selectivity interaction (Ambit KINOMEscan and KiNATiv profiling in Jurkat cells) EUB0000090b CDC42BPB; assay type: cell-based; details: at 1 µM
Serine/threonine-protein kinase MRCK beta (Homo sapiens), sequence (Q9Y5S2 whole entry): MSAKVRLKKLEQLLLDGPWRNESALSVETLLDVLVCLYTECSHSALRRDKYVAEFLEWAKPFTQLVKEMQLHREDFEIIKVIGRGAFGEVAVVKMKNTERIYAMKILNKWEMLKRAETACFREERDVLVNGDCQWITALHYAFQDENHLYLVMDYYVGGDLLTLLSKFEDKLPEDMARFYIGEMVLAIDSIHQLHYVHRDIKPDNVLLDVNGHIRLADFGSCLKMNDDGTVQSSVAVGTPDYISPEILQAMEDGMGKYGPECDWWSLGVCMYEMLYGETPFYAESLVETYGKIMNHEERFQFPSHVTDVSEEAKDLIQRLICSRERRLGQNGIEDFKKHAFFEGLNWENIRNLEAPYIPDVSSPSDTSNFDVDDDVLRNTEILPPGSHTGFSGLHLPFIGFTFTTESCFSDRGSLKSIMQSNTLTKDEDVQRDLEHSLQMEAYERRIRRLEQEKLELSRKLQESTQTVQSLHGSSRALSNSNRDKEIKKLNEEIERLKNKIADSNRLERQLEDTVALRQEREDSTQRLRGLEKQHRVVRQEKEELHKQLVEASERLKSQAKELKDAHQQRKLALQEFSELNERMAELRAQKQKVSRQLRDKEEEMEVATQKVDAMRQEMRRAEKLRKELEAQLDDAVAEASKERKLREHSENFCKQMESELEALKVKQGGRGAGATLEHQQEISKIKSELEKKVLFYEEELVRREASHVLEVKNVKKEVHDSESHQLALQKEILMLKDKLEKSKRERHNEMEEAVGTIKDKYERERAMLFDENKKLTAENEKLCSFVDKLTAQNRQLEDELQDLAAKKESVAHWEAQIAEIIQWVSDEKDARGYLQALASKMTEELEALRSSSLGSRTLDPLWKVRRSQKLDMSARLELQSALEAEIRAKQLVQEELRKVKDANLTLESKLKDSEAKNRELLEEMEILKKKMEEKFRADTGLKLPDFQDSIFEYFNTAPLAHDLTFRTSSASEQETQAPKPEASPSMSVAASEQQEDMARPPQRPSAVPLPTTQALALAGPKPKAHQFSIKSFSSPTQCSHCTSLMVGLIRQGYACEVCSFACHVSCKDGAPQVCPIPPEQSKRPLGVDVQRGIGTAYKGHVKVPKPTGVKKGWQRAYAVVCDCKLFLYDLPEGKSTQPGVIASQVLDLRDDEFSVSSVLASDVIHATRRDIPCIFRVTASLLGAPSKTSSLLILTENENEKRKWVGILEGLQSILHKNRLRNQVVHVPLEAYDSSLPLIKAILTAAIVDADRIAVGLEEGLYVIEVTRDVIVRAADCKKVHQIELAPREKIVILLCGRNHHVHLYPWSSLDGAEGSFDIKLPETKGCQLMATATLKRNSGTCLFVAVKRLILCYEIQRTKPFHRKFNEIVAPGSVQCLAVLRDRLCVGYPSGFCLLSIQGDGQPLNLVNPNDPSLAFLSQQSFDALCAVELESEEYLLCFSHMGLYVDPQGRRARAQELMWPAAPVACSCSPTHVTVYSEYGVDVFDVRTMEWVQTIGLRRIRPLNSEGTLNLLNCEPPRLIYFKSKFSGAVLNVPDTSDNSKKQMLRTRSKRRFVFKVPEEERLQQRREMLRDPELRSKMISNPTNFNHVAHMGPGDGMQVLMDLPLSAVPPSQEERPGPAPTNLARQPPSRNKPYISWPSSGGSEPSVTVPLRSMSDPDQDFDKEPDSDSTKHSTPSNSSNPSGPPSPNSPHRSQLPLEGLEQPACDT

Serine/threonine-protein kinase 32A (Homo sapiens), sequence (Q8WU08 whole entry): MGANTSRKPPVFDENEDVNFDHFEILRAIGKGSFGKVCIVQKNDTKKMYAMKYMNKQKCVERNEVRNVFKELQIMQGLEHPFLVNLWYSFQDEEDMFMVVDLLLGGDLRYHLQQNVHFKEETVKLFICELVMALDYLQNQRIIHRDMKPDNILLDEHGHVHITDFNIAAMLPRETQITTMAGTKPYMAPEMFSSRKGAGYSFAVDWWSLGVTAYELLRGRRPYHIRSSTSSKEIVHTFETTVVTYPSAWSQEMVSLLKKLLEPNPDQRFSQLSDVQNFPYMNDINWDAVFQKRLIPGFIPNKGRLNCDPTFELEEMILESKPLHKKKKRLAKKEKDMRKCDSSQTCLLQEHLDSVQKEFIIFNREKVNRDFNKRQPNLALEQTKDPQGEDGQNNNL
Nischarin (Homo sapiens), sequence (Q9Y2I1 whole entry, canonical isoform): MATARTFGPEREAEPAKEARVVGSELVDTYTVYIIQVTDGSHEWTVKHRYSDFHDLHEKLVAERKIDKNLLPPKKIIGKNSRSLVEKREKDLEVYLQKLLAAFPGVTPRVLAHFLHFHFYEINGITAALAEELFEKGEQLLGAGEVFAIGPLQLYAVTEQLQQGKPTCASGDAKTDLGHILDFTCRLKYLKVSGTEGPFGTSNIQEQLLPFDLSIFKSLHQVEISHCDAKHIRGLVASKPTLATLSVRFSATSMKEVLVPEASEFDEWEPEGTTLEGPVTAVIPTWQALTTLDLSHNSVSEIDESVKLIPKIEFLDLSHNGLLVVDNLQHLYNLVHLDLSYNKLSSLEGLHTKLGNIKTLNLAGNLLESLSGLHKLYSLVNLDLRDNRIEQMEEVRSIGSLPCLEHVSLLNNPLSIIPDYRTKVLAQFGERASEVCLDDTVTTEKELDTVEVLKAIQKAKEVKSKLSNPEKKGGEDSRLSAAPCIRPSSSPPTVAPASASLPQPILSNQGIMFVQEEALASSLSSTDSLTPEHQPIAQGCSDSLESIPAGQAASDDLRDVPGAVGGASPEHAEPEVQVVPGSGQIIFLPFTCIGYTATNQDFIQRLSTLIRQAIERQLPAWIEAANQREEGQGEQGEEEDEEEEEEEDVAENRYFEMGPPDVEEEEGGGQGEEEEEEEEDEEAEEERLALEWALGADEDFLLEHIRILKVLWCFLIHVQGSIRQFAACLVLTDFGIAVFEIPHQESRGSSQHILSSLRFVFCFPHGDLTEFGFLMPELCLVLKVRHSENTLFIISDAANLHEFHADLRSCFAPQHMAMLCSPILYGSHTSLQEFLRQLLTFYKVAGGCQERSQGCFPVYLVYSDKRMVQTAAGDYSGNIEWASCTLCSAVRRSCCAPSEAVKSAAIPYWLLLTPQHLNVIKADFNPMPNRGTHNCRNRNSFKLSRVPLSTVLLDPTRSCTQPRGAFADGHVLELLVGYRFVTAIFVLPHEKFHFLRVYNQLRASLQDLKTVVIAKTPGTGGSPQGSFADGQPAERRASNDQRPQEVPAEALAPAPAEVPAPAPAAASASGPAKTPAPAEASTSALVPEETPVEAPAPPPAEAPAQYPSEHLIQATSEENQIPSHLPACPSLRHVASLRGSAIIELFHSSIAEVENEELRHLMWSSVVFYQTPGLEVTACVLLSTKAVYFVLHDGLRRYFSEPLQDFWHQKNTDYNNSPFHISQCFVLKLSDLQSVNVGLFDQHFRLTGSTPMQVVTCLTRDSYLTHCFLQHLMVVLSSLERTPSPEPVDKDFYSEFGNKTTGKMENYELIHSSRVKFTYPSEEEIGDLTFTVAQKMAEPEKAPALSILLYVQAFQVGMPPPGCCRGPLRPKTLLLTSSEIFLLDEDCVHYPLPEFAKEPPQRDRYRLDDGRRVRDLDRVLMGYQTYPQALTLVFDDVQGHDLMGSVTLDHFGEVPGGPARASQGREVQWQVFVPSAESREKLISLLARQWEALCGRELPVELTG
Serine/threonine-protein kinase PLK1, sequence (P53350 whole entry): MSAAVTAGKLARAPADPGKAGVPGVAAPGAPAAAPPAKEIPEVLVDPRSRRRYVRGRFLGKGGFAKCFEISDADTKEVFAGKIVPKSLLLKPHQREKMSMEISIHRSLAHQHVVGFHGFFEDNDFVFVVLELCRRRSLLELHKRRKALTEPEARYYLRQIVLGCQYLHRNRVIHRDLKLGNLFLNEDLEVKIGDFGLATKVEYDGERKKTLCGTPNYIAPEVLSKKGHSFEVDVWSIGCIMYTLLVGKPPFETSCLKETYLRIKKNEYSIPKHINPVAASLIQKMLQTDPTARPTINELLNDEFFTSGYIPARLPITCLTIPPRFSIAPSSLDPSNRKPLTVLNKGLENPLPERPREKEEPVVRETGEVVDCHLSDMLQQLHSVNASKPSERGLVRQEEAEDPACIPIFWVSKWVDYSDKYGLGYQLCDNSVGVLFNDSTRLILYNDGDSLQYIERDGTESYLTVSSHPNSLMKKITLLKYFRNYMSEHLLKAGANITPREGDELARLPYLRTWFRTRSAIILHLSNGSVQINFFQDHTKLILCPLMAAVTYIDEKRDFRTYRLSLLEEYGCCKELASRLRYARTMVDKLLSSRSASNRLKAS
Serine/threonine-protein kinase Nek4 (Homo sapiens), sequence (P51957 whole entry, looked up): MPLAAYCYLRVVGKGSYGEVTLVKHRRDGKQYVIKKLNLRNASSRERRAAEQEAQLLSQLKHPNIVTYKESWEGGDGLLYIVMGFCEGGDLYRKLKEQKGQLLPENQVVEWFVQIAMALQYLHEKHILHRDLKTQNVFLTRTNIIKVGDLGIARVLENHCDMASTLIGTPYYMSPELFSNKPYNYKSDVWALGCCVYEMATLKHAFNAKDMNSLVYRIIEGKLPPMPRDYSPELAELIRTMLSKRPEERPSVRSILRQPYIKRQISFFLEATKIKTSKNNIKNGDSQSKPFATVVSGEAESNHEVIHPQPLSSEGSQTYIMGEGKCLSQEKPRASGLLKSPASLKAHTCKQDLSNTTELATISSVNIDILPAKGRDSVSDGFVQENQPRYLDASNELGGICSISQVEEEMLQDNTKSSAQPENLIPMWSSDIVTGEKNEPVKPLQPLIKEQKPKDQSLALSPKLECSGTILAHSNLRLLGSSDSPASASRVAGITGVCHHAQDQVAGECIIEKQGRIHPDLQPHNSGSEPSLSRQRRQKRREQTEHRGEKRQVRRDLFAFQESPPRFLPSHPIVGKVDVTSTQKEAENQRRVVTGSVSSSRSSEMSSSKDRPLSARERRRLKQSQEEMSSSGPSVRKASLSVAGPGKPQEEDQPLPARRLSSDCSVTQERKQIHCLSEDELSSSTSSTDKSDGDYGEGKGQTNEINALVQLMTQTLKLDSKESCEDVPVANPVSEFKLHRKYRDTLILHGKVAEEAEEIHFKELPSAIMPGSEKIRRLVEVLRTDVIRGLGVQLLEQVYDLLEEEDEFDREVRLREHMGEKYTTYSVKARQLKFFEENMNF

SMILES: C=CC(=O)Nc1cc(-n2c(=O)ccc3cnc4ccc(-c5ccc(NS(C)(=O)=O)cc5)cc4c32)ccc1C
- % of control [1]: 91%

SMILES: Cc1cc(F)c(C(=O)Nc2cccc(-c3nncn3C(C)C)n2)cc1-n1cnc(C2CC2)c1
- % of control [2]: 100%

SMILES: CC(=O)c1cc(-c2ccccc2OCC2CC2)c2ncccn12
- % of control (Nischarin (Homo sapiens)): 87%

SMILES: COc1cc(Nc2nc(C)cc(-c3cnn4nc(OC)ccc34)n2)cc(C(F)(F)F)c1
- % of control [3]: 80%

SMILES: N#Cc1cccc(-c2c[nH]c3ncnc(N4CCOCC4)c23)c1
- % of inhibition [4]: 17%

SMILES: CNC(=O)Nc1ccc(-c2nc(N3CC4CCC(C3)O4)c3cnn(C4CCC5(CC4)OCCO5)c3n2)cc1
- % of inhibition [5]: 7%

SMILES: O[C@H]1CC[C@H](Nc2ncc3nc(Nc4c(F)cc(F)cc4F)n([C@H]4CCOC4)c3n2)CC1
- % of control [6]: 100%

SMILES: CCN(CC)CCCCNc1ncc2cc(-c3cc(OC)cc(OC)c3)c(NC(=O)NC(C)(C)C)nc2n1
- % of control [7]: 100%

SMILES: CN(C)C/C=C/C(=O)Nc1ccc(C(=O)N2CCCC(Nc3ncc(Cl)c(-c4c[nH]c5ccccc45)n3)C2)cc1 (stereo not given)
- % of control [8]: 100%
- % of control [9]: 96%
